Legend:
[1] = test system: Aβ40 in conditioned medium of cells stably expressing Amyloid Precursor Protein (APP); test: In vitro BACE cell-based assay (Aβ40 in conditioned medium, sandwich ELISA); conditions: Homo sapiens, HEK293, average IC50; read-out: HEK cell assay
Summary of the method: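 Secreted Aβ40 is captured with pAb40 and detected with biotinylated 6E10, read by europium time-resolved fluorescence. IC50 comes from percent inhibition versus concentration.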

[2] = biological target: Beta Secretase enzyme (BACE) (Homo sapiens, UniProt P56817); test: In vitro enzymatic BACE FRET (fluorescence resonance energy transfer) assay; format: biochemical; conditions: average IC50, enzyme assay; read-out: BACE 1 FRET assay
Chain of Beta Secretase enzyme (BACE) (P56817 46-501, species assumed): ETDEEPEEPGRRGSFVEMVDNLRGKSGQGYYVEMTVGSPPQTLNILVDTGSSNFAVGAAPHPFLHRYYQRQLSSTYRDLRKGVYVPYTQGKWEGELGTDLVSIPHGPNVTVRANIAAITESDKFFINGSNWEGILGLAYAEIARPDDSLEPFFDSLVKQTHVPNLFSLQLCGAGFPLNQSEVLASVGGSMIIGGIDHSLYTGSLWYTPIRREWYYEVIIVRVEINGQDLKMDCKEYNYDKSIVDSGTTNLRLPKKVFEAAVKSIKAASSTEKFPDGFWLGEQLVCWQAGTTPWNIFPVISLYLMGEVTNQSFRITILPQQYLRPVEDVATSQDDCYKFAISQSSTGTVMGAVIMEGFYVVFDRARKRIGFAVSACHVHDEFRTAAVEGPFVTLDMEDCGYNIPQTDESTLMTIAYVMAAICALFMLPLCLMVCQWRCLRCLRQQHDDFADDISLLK
Summary of the method: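 Enzyme activity was measured at pH 4.2 (0.05 M acetate, 10% DMSO final, 100 uM genapol) by cleavage of a 50 nM quenched fluorogenic peptide. After one hour, Tris was added to neutralise the pH and fluorescence was recorded.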

IC50 [1] [nM]	IC50 [2] [nM]	Structure (SMILES)
17	0.6	CC1(C)CC(c2cnc3c(c2)[C@]2(CSC(N)=N2)c2cc(-c4cccnc4F)ccc2O3)=CCO1 [Example 774, (5S)-3-(2,2-dimethyl-3,6-dihydro-2H-pyran-4-yl)-7-(2-fluoro-3-pyridinyl)spiro[chromeno[2,3-b]pyridine-5,4′-[1,3]thiazol]-2′-amine]
54	2.8	N#Cc1cccc(-c2ccc3c(c2)[C@@]2(CSC(N)=N2)c2cc(C4=CCCOC4)cnc2O3)c1F [Example 778, 3-((5S)-2′-amino-3-(5,6-dihydro-2H-pyran-3-yl)spiro[chromeno[2,3-b]pyridine-5,4′-[1,3]thiazol]-7-yl)-2-fluorobenzonitrile]
319	4.8	CC1(C)C=C(c2cnc3c(c2)[C@]2(CSC(N)=N2)c2cc(-c4cccc(C#N)c4F)ccc2O3)CCO1 [Example 779, 3-((5S)-2′-amino-3-(6,6-dimethyl-3,6-dihydro-2H-pyran-4-yl)spiro[chromeno[2,3-b]pyridine-5,4′-[1,3]thiazol]-7-yl)-2-fluorobenzonitrile]
10	0.6	N#Cc1cc(-c2ccc3c(c2)[C@@]2(CSC(N)=N2)c2cc(C4=CCCOC4)cnc2O3)ccc1F [Example 783, 5-((5S)-2′-amino-3-(5,6-dihydro-2H-pyran-3-yl)spiro[chromeno[2,3-b]pyridine-5,4′-[1,3]thiazol]-7-yl)-2-fluorobenzonitrile]
15	1.4	CC1(C)C=C(c2cnc3c(c2)[C@]2(CSC(N)=N2)c2cc(-c4ccc(F)c(C#N)c4)ccc2O3)CCO1 [Example 784, 5-((5S)-2′-amino-3-(6,6-dimethyl-3,6-dihydro-2H-pyran-4-yl)spiro[chromeno[2,3-b]pyridine-5,4′-[1,3]thiazol]-7-yl)-2-fluorobenzonitrile]
13	1.6	CC1(C#Cc2cnc3c(c2)[C@]2(CSC(N)=N2)c2cc(-c4ccc(F)c(C#N)c4)ccc2O3)COC1 [Example 785, 5-((5S)-2′-amino-3-((3-methyl-3-oxetanyl)ethynyl)spiro[chromeno[2,3-b]pyridine-5,4′-[1,3]thiazol]-7-yl)-2-fluorobenzonitrile]
41	10.5	N#Cc1cc(-c2ccc3c(c2)[C@@]2(COC(N)=N2)c2cc(-c4ccnc(F)c4)cnc2O3)ccc1F [Example 786, 5-((5S)-2′-amino-3-(2-fluoro-4-pyridinyl)spiro[chromeno[2,3-b]pyridine-5,4′-[1,3]oxazol]-7-yl)-2-fluorobenzonitrile]

Continued, molecule first:

Structure (SMILES)	IC50 [1] [nM]	IC50 [2] [nM]
Cc1ccc(-c2cnc3c(c2)[C@]2(CSC(N)=N2)c2cc(-c4cnccc4F)ccc2O3)cn1 [Example 766, (5S)-7-(4-fluoro-3-pyridinyl)-3-(6-methyl-3-pyridinyl)spiro[chromeno[2,3-b]pyridine-5,4′-[1,3]thiazol]-2′-amine]	10	1.2
NC1=N[C@@]2(CS1)c1cc(-c3cccnc3F)ccc1Oc1ncc(-c3ccnc(F)c3)cc12 [Example 767, (5S)-7-(2-fluoro-3-pyridinyl)-3-(2-fluoro-4-pyridinyl)spiro[chromeno[2,3-b]pyridine-5,4′-[1,3]thiazol]-2′-amine]	23	1
NC1=N[C@@]2(CS1)c1cc(-c3cnccc3F)ccc1Oc1ncc(C3=CCOCC3)cc12 [Example 768, (5S)-3-(3,6-dihydro-2H-pyran-4-yl)-7-(4-fluoro-3-pyridinyl)spiro[chromeno[2,3-b]pyridine-5,4′-[1,3]thiazol]-2′-amine]	16	1.2
NC1=N[C@@]2(CS1)c1cc(-c3cnccc3F)ccc1Oc1ncc(-c3cccnc3)cc12 [Example 769, (5S)-7-(4-fluoro-3-pyridinyl)-3-(3-pyridinyl)spiro[chromeno[2,3-b]pyridine-5,4′-[1,3]thiazol]-2′-amine]	44	2.3
NC1=N[C@@]2(CS1)c1cc(-c3cncc(F)c3)ccc1Oc1ncc(C3=CCCOC3)cc12 [Example 770, (5S)-3-(5,6-dihydro-2H-pyran-3-yl)-7-(5-fluoro-3-pyridinyl)spiro[chromeno[2,3-b]pyridine-5,4′-[1,3]thiazol]-2′-amine]	10	0.6
NC1=N[C@@]2(CS1)c1cc(-c3cncc(F)c3)ccc1Oc1ncc(-c3ncccn3)cc12 [Example 771, (5S)-7-(5-fluoro-3-pyridinyl)-3-(2-pyrimidinyl)spiro[chromeno[2,3-b]pyridine-5,4′-[1,3]thiazol]-2′-amine]	96	4.6
CC#Cc1cncc(-c2ccc3c(c2)[C@@]2(CSC(N)=N2)c2cc(C4=CCOCC4)cnc2O3)c1 [Example 772, (5S)-3-(3,6-dihydro-2H-pyran-4-yl)-7-(5-(1-propyn-1-yl)-3-pyridinyl)spiro[chromeno[2,3-b]pyridine-5,4′-[1,3]thiazol]-2′-amine]	2	0.5
NC1=N[C@@]2(CS1)c1cc(-c3cnccc3F)ccc1Oc1ncc(C3=CCCOC3)cc12 [Example 773, (5S)-3-(5,6-dihydro-2H-pyran-3-yl)-7-(4-fluoro-3-pyridinyl)spiro[chromeno[2,3-b]pyridine-5,4′-[1,3]thiazol]-2′-amine]	14	0.8
CC#Cc1cncc(-c2cnc3c(c2)[C@]2(COC(N)=N2)c2cc(OC)ccc2O3)c1 [Example 775, (5S)-7-methoxy-3-(5-(1-propyn-1-yl)-3-pyridinyl)spiro[chromeno[2,3-b]pyridine-5,4′-[1,3]oxazol]-2′-amine]	≥ 10000	4830
CC#Cc1cncc(-c2cc(F)c3c(c2)[C@]2(COC(N)=N2)c2cc(OC)ccc2O3)c1 [Example 776, (4S)-4′-fluoro-7′-methoxy-2′-(5-(1-propyn-1-yl)-3-pyridinyl)spiro[1,3-oxazole-4,9′-xanthen]-2-amine]	≥ 10000	2380
CC#Cc1cncc(-c2cnc3c(c2)[C@]2(COC(N)=N2)c2cc(-c4cccnc4F)ccc2O3)c1 [Example 777, (5S)-7-(2-fluoro-3-pyridinyl)-3-(5-(1-propyn-1-yl)-3-pyridinyl)spiro[chromeno[2,3-b]pyridine-5,4′-[1,3]oxazol]-2′-amine]	3510	106
CC1(C#Cc2cnc3c(c2)[C@]2(CSC(N)=N2)c2cc(-c4cccc(C#N)c4F)ccc2O3)COC1 [Example 780, 3-((5S)-2′-amino-3-((3-methyl-3-oxetanyl)ethynyl)spiro[chromeno[2,3-b]pyridine-5,4′-[1,3]thiazol]-7-yl)-2-fluorobenzonitrile]	338	2
CC#Cc1cncc(-c2ccc3c(c2)[C@@]2(CSC(N)=N2)c2cc(-c4ccnc(F)c4)cnc2O3)c1 [Example 781, (5S)-3-(2-fluoro-4-pyridinyl)-7-(5-(1-propyn-1-yl)-3-pyridinyl)spiro[chromeno[2,3-b]pyridine-5,4′-[1,3]thiazol]-2′-amine]	3	0.3
CC#Cc1cncc(-c2ccc3c(c2)[C@@]2(CSC(N)=N2)c2cc(C#CC4(C)COC4)cnc2O3)c1 [Example 782, (5S)-3-((3-methyl-3-oxetanyl)ethynyl)-7-(5-(1-propyn-1-yl)-3-pyridinyl)spiro[chromeno[2,3-b]pyridine-5,4′-[1,3]thiazol]-2′-amine]	4	0.9
